Laboratory results: patent publication US7473669B2, “Substituted 4,5-dihydro-1,2,4-triazin-6-ones, 1,2,4-triazin-6-ones, and their use as fungicides” (priority 2005, dated 2009)
Read-outs that look alike come from different tables or passages of the source.

How the values were obtained:
[1] = system: Phytophthora infestans; assay: whole plant or invertebrate; type: in vivo; details: in Solanum lycopersicum, 24 h
[2] = system: Leptosphaeria nodorum; assay: Glume Blotch of Wheat greenhouse one-day protectant test; type: in vivo; details: Parastagonospora nodorum, 24 h, read-out: LEPTNO percent control rating
[3] = system: Erysiphe cichoracaerum; assay: Cucumber Powdery Mildew greenhouse one-day protectant test; type: in vivo; details: 24 h, read-out: ERYSCI percent control rating
[4] = system: Colletotricum lagenarium; assay: Cucumber Anthracnose greenhouse one-day protectant test; type: in vivo; details: Cucumis sativus, 24 h, read-out: COLLLA percent control rating
[5] = system: Puccinia recondita tritici; assay: Leaf Rust of Wheat greenhouse one-day protectant test; type: in vivo; details: 24 h, read-out: PUCCRT percent control rating
[6] = system: Pyricularia oryzae; assay: whole plant or invertebrate; type: in vivo; details: 24 h, read-out: PYRIOR percent control rating
[7] = read-out: PHYTIN percent control rating, tomato plants, one-day protectant test, 200 ppm application rate
[8] = wheat plants, one-day protectant test, 200 ppm application rate
[9] = cucumber plants, one-day protectant test, 200 ppm application rate

Row | SMILES | pest or weed control at 200 ppm [1, 7] | pest or weed control at 200 ppm [2, 8] | melting point | pest or weed control at 200 ppm [3, 9] | pest or weed control at 200 ppm [4, 9] | pest or weed control at 200 ppm [5, 8] | pest or weed control at 200 ppm [6] | pest or weed control at 200 ppm ([1]; read-out: PHYTIN percent control rating) | pest or weed control at 200 ppm [2] | pest or weed control at 200 ppm [3] | pest or weed control at 200 ppm [4] | pest or weed control at 200 ppm [5]
1 | O=C1CNC(c2cccc(Cc3ccccc3)c2)=NN1CC(F)(F)F [Compound 73, 3-(3-benzylphenyl)-1-(2,2,2-trifluoroethyl)-4,5-dihydro-1,2,4-triazin-6(1H)-one] | 0 to 49% | 80 to 100% | 104 to 106 °C | 0 to 49% | 0 to 49% | 80 to 100% | 80 to 100% | – | – | – | – | –
2 | O=c1cnc(-c2cc(Br)cc(-c3ccsc3)c2)nn1CC(F)(F)F [Compound 84, 3-(3-Bromo-5-thien-3-ylphenyl)-1-(2,2,2-trifluoroethyl)-1,2,4-triazin-6(1H)-one] | 0 to 49% | 80 to 100% | 180 to 182 °C | 0 to 49% | 50 to 79% | 0 to 49% | 80 to 100% | – | – | – | – | –
3 | O=C1CNC(c2cc(-c3ccsc3)cc(-c3ccsc3)c2)=NN1CC(F)(F)F [Compound 61, 3-(3,5-dithien-3-ylphenyl)-1-(2,2,2-trifluoroethyl)-4,5-dihydro-1,2,4-triazin-6(1H)-one] | 0 to 49% | 0 to 49% | 180 to 182 °C | 0 to 49% | 0 to 49% | 80 to 100% | 80 to 100% | – | – | – | – | –
4 | C[Si](C)(C)C#CCn1nc(-c2ccc(F)c(Br)c2)ncc1=O [Compound 96, 3-(3-bromo-4-fluorophenyl)-1-(3-trimethylsilanyl-prop-2-ynyl)-1,2,4-triazin-6(1H)-one] | 0 to 49% | 0 to 49% | 103 to 105 °C | 0 to 49% | 50 to 79% | 50 to 79% | 80 to 100% | – | – | – | – | –
5 | O=c1cnc(-c2cc(-c3ccsc3)cc(-c3ccsc3)c2)nn1CC(F)(F)F [Compound 80, 3-(3,5-dithien-3-ylphenyl)-1-(2,2,2-trifluoroethyl)-1,2,4-triazin-6(1H)-one] | 0 to 49% | 0 to 49% | 189 to 191 °C | 0 to 49% | 0 to 49% | 50 to 79% | 80 to 100% | – | – | – | – | –
6 | O=c1cnc(-c2cccc(Cc3ccccc3)c2)nn1CC(F)(F)F [Compound 91, 3-(3-Benzylphenyl)-1-(2,2,2-trifluoroethyl)-1,2,4-triazin-6(1H)-one] | 0 to 49% | 80 to 100% | 95 to 96 °C | 80 to 100% | 80 to 100% | 80 to 100% | 80 to 100% | – | – | – | – | –
7 | O=c1cnc(-c2cccc(C(=NOCc3ccccc3)c3ccccc3)c2)nn1CC(F)(F)F [Compound 95] | 0 to 49% | 50 to 79% | 139 to 140 °C | 0 to 49% | 0 to 49% | 0 to 49% | 80 to 100% | – | – | – | – | –
8 | Cc1cc(C)cc(-c2ncc(=O)n(Cc3c(F)c(F)c(F)c(F)c3F)n2)c1 [Compound 85] | 0 to 49% | 80 to 100% | – | 0 to 49% | 80 to 100% | 80 to 100% | 80 to 100% | – | – | – | – | –
9 | O=C1C(SC2CCCCC2)NC(c2cccc(C(=NOCc3ccccc3)c3ccccc3)c2)=NN1CC(F)(F)F (stereo not shown) [Compound 57] | 0 to 49% | 0 to 49% | – | 0 to 49% | 0 to 49% | 0 to 49% | 0 to 49% | – | – | – | – | –
10 | Cc1cc(C)cc(C2=NN(CC(F)(F)F)C(=O)C(SCC(=O)O)N2)c1 (stereo not shown) [Compound 42] | 0 to 49% | 80 to 100% | – | 0 to 49% | 80 to 100% | 80 to 100% | 80 to 100% | – | – | – | – | –
11 | O=C1CNC(c2csc(-c3ccccc3)c2)=NN1CC(F)(F)F [Compound 60] | 0 to 49% | 80 to 100% | – | 0 to 49% | 0 to 49% | 0 to 49% | 80 to 100% | – | – | – | – | –
12 | CCCCN1N=C(c2ccc(Oc3cccnc3)cc2)NCC1=O [Compound 16] | 0 to 49% | 0 to 49% | – | 0 to 49% | 0 to 49% | 80 to 100% | 0 to 49% | – | – | – | – | –
13 | O=C(Nc1c(Cl)cccc1Cl)Oc1cccc(C2=NN(CC(F)(F)F)C(=O)CN2)c1 [Compound 25] | – | – | – | – | – | – | 0 to 49% | 0 to 49% | 0 to 49% | 0 to 49% | 0 to 49% | 0 to 49%
14 | O=C1CNC(c2cccc(/C=C3/CCc4ccccc43)c2)=NN1CC(F)(F)F [Compound 72] | 0 to 49% | 80 to 100% | – | 0 to 49% | 0 to 49% | 80 to 100% | 80 to 100% | – | – | – | – | –
15 | CCCCn1nc(-c2cc(-c3ccsc3)cc(-c3ccsc3)c2)ncc1=O [Compound 81] | 0 to 49% | 80 to 100% | – | 0 to 49% | 0 to 49% | 0 to 49% | 0 to 49% | – | – | – | – | –
16 | O=C1CNC(c2cccc(Oc3nc4ccc(Cl)cc4s3)c2)=NN1CC(F)(F)F [Compound 27] | 0 to 49% | 80 to 100% | – | 0 to 49% | 50 to 79% | 80 to 100% | 80 to 100% | – | – | – | – | –
17 | O=C1CNC(c2cccc(OCc3ccccc3)c2)=NN1CC(F)(F)F [Compound 17] | 0 to 49% | 80 to 100% | – | 0 to 49% | 80 to 100% | 80 to 100% | 80 to 100% | – | – | – | – | –
18 | O=C1CNC(c2cccc(Oc3cc(C(F)(F)F)cc(C(F)(F)F)n3)c2)=NN1CC(F)(F)F [Compound 24] | 0 to 49% | 80 to 100% | – | 0 to 49% | 0 to 49% | 80 to 100% | 0 to 49% | – | – | – | – | –
19 | O=C1C(SC2CCCCC2)NC(c2cccc(/C=C\c3ccccc3)c2)=NN1CC(F)(F)F (stereo not shown) [Compound 47] | 0 to 49% | 80 to 100% | – | 80 to 100% | 80 to 100% | 80 to 100% | 80 to 100% | – | – | – | – | –
20 | Cc1cc(C)cc(C2=NN(CC(F)(F)F)C(=O)C(OC3CCCCC3)N2)c1 (stereo not shown) [Compound 41] | 0 to 49% | 80 to 100% | – | 0 to 49% | 50 to 79% | 80 to 100% | 80 to 100% | – | – | – | – | –
